Reference: US12168010B2, “Use of co-enzyme antagonists to slow metabolism” (priority 2020, dated 2024)
“Also recorded” adds a separate entry of the source.

Tests used:
[1] = Study in dogs on the conversion of B-OT to OT (toxicokinetics of OT in plasma, tolerability); assay type: in vivo, dogs (Beagle breed)
Procedure: FIG. 1: Change in individual plasma concentrations of OT with time (over 24 hours) in male beagle dogs. The y-axis indicates—the plasma concentration in ng/ml. • On the x-axis the time is indicated in hours (h=hours) • (a) Change in individual plasma concentrations on day 1 after administration of a single dose of B-OT in an amount of 1 mg/kg/day. • The symbols mean: • —⋄—=dog no. 3001 • —□—=dog no. 3002 • (b) Change in individual plasma concentrations on day 1 after administration of a single dose of B-OT in an amount of 0.5 mg/kg/day. • The symbols mean: • —Δ—=dog no. 4001 • —∘—=dog no. 4002 • (c) Change in individual plasma concentrations at day 7 after seven days of administration of single doses of B-OT in an amount of 0.5 mg/kg/day. • The symbols mean: • —Δ—=dog no. 4001 • —∘—=dog no. […] • (d) Change in mean plasma concentrations on day 1 after administration of a single dose of B-OT at 1 mg/kg/day, and on day 1 and day 7 after daily administration of single doses of B-OT in an amount of 0.5 mg/kg/day. • The symbols mean: • —□—=group 3, 1.0 mg/kg/day, day 1 • —Δ—=Group 4, 0.5 mg/kg/day, day 1. • —∘—=group 4, 0.5 mg/kg/day, day 7.
Male and female dogs (Beagle breed) were administered B-OT (benfo-oxythiamine) orally once daily for periods of one to seven days in amounts of 1 mg/kg/day or 0.5 mg/kg/day.
The toxicokinetics of the active metabolite OT (oxythiamine) was determined in plasma samples obtained on the first day “Day 1” and on the seventh day “Day 7” after the start of administration. The measurement results obtained are shown graphically in FIGS. 1 (a) to (d).

[2] = In vivo pharmacokinetics: oxythiamine in the brain after B-OT administration
SARS-CoV-2 = test: Curative trials: B-OT in addition to standard therapy in patients with covid-19 pneumonia
[3] = Change in pulse beat (heart rate) in dogs after administration of B-OT; assay type: in vivo; conditions: over 24 hours, B-OT 0.05, 0.15, 0.5 mg/kg/day
Procedure: FIG. 2: Graph showing the change in plus beat with time in dogs after administration of different amounts (doses) of B-OT. On the y-axis, the pulse beat (heart rate) is given in beats per minute (bpm). On the x-axis, the time is given in hours. • The symbols mean: • —●=0 mg/kg/day—Benfooxythiamine=0 mg/kg/day—B-OT • —□—=0.05 mg/kg/day—Benfooxythiamine=0.05 mg/kg/day—B-OT • —Δ—=0.15 mg/kg/day—Benfooxythiamine=0.15 mg/kg/day—B-OT • −⋄—=0.5 mg/kg/day—Benfooxythiamine=0.5 mg/kg/day—B-OT
By slowing down (throttling) the metabolism, GSSV also causes a reduction in the energy released with it. The body attempts to compensate for the lower energy release by increasing the pulse rate in order to transport more oxygen into the body so that more energy can be released as a result. The increase in the patient's pulse beat is an indication and a suitable parameter that GSSV has inhibited energy release and to what extent. If there is a sharp increase in pulse rate, e.g., in a person a pulse rate above 90, countermeasures may be necessary to increase energy release again.

[4] = Comparison of B-OT amounts per kg body weight in dogs and humans versus rats and mice; assay type: in vivo
[5] = rat, in vivo, po
Description: This means that there is a very efficient cleavage of B-OT into OT, and a high percentage amount of OT is present in the blood. Thus, B-OT is a pharmacokinetically good and orally applicable substance that allows good and efficient delivery of OT. Since OT usually must/should be administered intraperitoneally, the oral administration of B-OT represents an important advantage in comparison. The bioavailability and absorption of B-OT is also more suitable for human therapy due to the more lipophilic basic structure of B-OT compared to OT. Compared to OT, B-OT is thus better, easier and safer to use as a drug.

[6] = all patients with additional B-OT therapy

Cc1ncc(C[n+]2csc(CCO)c2C)c(=O)[nH]1 [OT, oxythiamine]
time of maximum OT plasma concentration (Tmax) after administration of B-OT ([1]; Beagle dogs, oral B-OT, all applied doses): between one and two hours
systemic exposure to OT / B-OT ([1]; dogs treated orally with B-OT): achieved in all animals
increase in plasma concentrations of oxythiamine (OT) with B-OT dose ([1]; dogs, stepwise increase of B-OT dose from 0.2 mg/kg to 1.0 mg/kg): approximately linearly proportional to the increase in dose
increase in plasma OT based on dose-normalized Cmax and partial AUC ([1]; male beagle dogs, oral B-OT single doses, over the range of applied doses): less than dose-proportional increase
oxythiamine in the brain after B-OT is administered [2]: present in significant amounts in the brain

C/C(=C(/CCOP(=O)(O)O)SC(=O)c1ccccc1)N(C=O)Cc1cnc(C)[nH]c1=O [B-OT, benfo-oxythiamine]
behavior and physical condition ([1]; dog, in vivo): No relevant abnormalities
body weight ([1]; dog, in vivo): no significant variations in body weight
systemic exposure to OT / B-OT ([1]; dog, in vivo, po): exposed to the active metabolite OT but not to the preform (prodrug) B-OT
tolerability of treatment ([1]; dogs, oral B-OT 1 or 0.5 mg/kg/day, one to seven days): well tolerated
viral pneumonia infiltrates in lung computed tomography (SARS-CoV-2; after 7 days of B-OT therapy versus before): marked decrease in infiltrates; also recorded: marked decrease of infiltrates; also recorded: significant decrease in the previously pronounced infiltrates
C-reactive Protein (CRP) (SARS-CoV-2; [6]): significant reduction
Interleukin-6 (IL-6) (SARS-CoV-2; [6]): significant reduction
required inpatient stay (SARS-CoV-2; compared with the overall collective of more than 700 patients): on average one week less
side effects attributable to B-OT (SARS-CoV-2; four covid-19 pneumonia patients, 6 mg B-OT per day perorally for seven days): None of the patients showed side effects
need for intensive care (SARS-CoV-2; four covid-19 pneumonia patients, 6 mg B-OT per day perorally for seven days plus standard therapy): none of the four patients required intensive care
need for respiratory support therapy beyond nasal cannula or mask oxygen insufflation (SARS-CoV-2; four patients with additional B-OT therapy, versus overall collective of more than 700 patients): none of the four patients
lung computed tomography at follow-up (SARS-CoV-2; patient 2, one month after the end of therapy): stable findings
pulse beat (heart rate) [3]: significant increase in pulse beat
reaction of dogs and humans to B-OT amounts per kg applied to rats and mice ([4]; rodent amounts per kilogram body weight used in dogs and humans): in many cases led to death
dose usable in humans and dogs compared to published amounts used in rats and mice ([4]; to avoid serious, sometimes fatal, courses): approximately two hundredfold lower dose
B-OT (prodrug form) measurable in the blood [5]: 0%
share of total amount of B-OT administered measurable in the blood in the form of oxythiamine (OT) [5]: 44%
